Results from ChEMBL document CHEMBL5518237, “Design of Novel 2-Phenylquinazolin-4-amines as Selective CYP1B1 Inhibitors for Overcoming Paclitaxel Resistance in A549 Cells” (J Med Chem, 2024).
Active and inactive are the calls of the source. The calls are words filed in the database; no cut-off is given here.

Assays:
Cytochrome P450 1B1 = target: T1, Cytochrome P450 1B1 (Homo sapiens, UniProt Q16678); experiment: Inhibition of human recombinant CYP1B1 using 7-ethoxyresorufin as substrate preincubated with enzyme for 5 mins followed by fluorescent substrate and NADPH addition and measured after 35 mins by EROD assay; type: ADME
T1 sequence (Q16678 whole entry): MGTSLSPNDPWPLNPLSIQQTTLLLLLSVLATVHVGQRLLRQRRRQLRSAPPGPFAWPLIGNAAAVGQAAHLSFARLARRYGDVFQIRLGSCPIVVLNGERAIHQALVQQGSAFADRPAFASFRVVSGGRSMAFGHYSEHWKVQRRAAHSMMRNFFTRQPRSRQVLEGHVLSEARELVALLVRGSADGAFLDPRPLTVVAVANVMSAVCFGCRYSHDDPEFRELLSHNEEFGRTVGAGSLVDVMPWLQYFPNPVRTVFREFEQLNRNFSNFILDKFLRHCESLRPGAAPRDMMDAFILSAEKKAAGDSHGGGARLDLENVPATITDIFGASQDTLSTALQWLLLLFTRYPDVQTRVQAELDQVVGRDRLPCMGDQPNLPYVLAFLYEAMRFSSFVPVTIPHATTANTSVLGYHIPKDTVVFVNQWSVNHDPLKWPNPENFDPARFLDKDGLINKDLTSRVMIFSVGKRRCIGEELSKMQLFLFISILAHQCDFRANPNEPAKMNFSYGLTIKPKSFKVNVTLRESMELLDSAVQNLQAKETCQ

Cytochrome P450 1A1 = target: T2, Cytochrome P450 1A1 (Homo sapiens, UniProt P04798); experiment: Inhibition of human recombinant CYP1A1 using 7-ethoxyresorufin as substrate preincubated with enzyme for 5 mins followed by fluorescent substrate and NADPH addition and measured after 15 mins by EROD assay; type: ADME
T2 sequence (P04798 whole entry): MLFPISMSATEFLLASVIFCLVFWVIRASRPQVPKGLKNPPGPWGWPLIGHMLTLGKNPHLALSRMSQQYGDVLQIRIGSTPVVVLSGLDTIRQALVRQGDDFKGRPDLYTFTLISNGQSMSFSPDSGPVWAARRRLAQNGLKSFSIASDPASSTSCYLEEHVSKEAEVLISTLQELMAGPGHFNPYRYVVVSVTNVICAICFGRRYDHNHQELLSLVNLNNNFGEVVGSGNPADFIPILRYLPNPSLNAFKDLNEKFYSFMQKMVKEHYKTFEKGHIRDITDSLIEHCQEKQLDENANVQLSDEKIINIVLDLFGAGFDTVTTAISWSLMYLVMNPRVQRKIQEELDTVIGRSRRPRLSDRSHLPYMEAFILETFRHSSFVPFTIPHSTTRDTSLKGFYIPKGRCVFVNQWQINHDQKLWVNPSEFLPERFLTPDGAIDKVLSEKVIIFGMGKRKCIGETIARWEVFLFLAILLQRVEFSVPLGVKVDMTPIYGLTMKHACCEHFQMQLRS

Cytochrome P450 1A2 = target: T3, Cytochrome P450 1A2 (Homo sapiens, UniProt P05177); experiment: Inhibition of human recombinant CYP1A2 using 7-ethoxyresorufin as substrate preincubated with enzyme for 5 mins followed by fluorescent substrate and NADPH addition and measured after 50 mins by EROD assay; type: ADME
T3 sequence (P05177 whole entry): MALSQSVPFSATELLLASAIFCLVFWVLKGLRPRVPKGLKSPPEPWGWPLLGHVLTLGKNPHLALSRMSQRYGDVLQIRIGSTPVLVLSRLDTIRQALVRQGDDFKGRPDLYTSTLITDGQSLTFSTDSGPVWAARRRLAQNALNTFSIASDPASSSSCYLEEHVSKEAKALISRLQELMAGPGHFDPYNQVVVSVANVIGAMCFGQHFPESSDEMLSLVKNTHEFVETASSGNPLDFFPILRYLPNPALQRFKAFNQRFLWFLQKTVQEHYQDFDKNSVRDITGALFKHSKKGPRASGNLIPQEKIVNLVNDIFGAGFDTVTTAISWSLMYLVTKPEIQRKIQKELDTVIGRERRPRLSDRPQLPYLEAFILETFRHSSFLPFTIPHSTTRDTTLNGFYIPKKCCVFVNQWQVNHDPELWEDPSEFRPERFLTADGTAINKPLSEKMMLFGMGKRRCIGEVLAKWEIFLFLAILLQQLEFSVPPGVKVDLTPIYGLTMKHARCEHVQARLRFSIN

[1] = (§1) Selectivity ratio of IC50 for Inhibition of human recombinant CYP1A1 to IC50 for Inhibition of human recombinant CYP1B1; type: ADME; settings: recombinant enzyme
[2] = (§2) Selectivity ratio of IC50 for Inhibition of human recombinant CYP1A2 to IC50 for Inhibition of human recombinant CYP1B1; type: ADME; settings: recombinant enzyme
[3] = n-Octanol/PBS partition coefficient, log D of the radiolabeled compound at 0.37 MBq at pH 7.4 by gamma-counting analysis; type: physicochemical; settings: n-octanol/PBS, read-out: logD
[4] = Drug uptake in human HCT-116 cells using radiolabeled compound at 0.037 MBq incubated for 120 mins by gamma-counting analysis; type: ADME, cell-based; settings: hct-116, 2 h
[5] = Drug uptake in human A549 cells using radiolabeled compound at 0.037 MBq incubated for 120 mins by gamma-counting analysis; type: ADME, cell-based; settings: a549, 2 h
[6] = Drug uptake in human HEK293T cells using radiolabeled compound at 0.037 MBq incubated for 120 mins by gamma-counting analysis; type: ADME, cell-based; settings: hek-293t, 2 h
CYP1B1 [7] = target: T4, CYP1B1 (Homo sapiens, UniProt Q16678); experiment: Inhibition of human recombinant CYP1B1 using 7-ethoxyresorufin as substrate at 0.01 uM preincubated with enzyme for 5 mins followed by fluorescent substrate and NADPH addition and measured after 35 mins by EROD assay; type: ADME; settings: recombinant CYP1B1, probe 7-ethoxyresorufin, time 40 min
T4 sequence (Q16678 whole entry): T1 sequence (Q16678 whole entry)

CYP1B1 [8] = target: T4, CYP1B1; experiment: Inhibition of human recombinant CYP1B1 using 7-ethoxyresorufin as substrate at 1 uM preincubated with enzyme for 5 mins followed by fluorescent substrate and NADPH addition and measured after 35 mins by EROD assay; type: ADME; settings: recombinant CYP1B1, probe 7-ethoxyresorufin, time 40 min
CYP1A1 versus CYP1B1 = experiment: as §1; type: ADME; settings: recombinant CYP1A1 and recombinant CYP1B1, read-out: Ratio IC50
CYP1A2 versus CYP1B1 = experiment: as §2; type: ADME; settings: recombinant CYP1A2 and recombinant CYP1B1, read-out: Ratio IC50
[9] = n-Octanol/water partition coefficient, logP of the compound by HPLC analysis; type: physicochemical; settings: octanol/water
A549 [10] = experiment: Induction of apoptosis in DMBA-stimulated PTX resistant human A549 cells assessed as apoptosis rate at 5 uM incubated for 24 hrs by flow cytometry (reference value: 6.67 +/- 1.03%); type: functional
A549 [11] = experiment: Inhibition of tumor metastasis in DMBA-stimulated PTX resistant human A549 cells assessed as inhibition of cell migration by measuring decrease in crawling ability of cells at 2.5 to 10 uM incubated for 48 hrs by wound healing assay; type: functional, cell-based; settings: dose 2.5-10 µM

Row | Compound | IC50 (Cytochrome P450 1B1) [nM] | IC50 (Cytochrome P450 1A1) [nM] | IC50 (Cytochrome P450 1A2) [nM] | Ratio IC50 [1] | inhibition at 35 min, 0.01 µM (CYP1B1 [7]) [%] | inhibition at 35 min, 1 µM (CYP1B1 [8]) [%] | selectivity ratio (CYP1A2 versus CYP1B1) | also measured
1 | FCCNc1nc(-c2ccc(I)cc2)nc2ccccc12 | 0.24 | 36.7 | 727 | 151.87 | – | – | – | Ratio IC50 [2]: 3029.17; logD [3]: 3.34; Drug uptake [4]: Active; Drug uptake [5]: Active; Drug uptake [6]: Active
2 | Nc1nc(-c2ccc(Br)cc2)nc2c1ccc1ccccc12 | 3.07 | 28.1 | 784 | – | 80.6 | 95.4 | 256 | selectivity ratio (CYP1A1 versus CYP1B1): 9.16
3 | COc1ccc(-c2nc(N)c3ccccc3n2)cc1 | 2.48 | 248 | 5840 | – | 84.1 | 91.8 | 2360 | selectivity ratio (CYP1A1 versus CYP1B1): 99.9
4 | OCCNc1nc(-c2ccc(I)cc2)nc2ccccc12 | – | – | – | – | 68.5 | 96.5 | – | –
5 | Nc1nc(-c2cccc(Cl)c2)nc2ccccc12 | – | – | – | – | 25.8 | 74.4 | – | –
6 | CCCNc1nc(-c2ccc(I)cc2)nc2ccccc12 | – | – | – | – | 67.8 | 94.2 | – | –
7 | Nc1nc(-c2cccc(C(=O)O)c2)nc2ccccc12 | – | – | – | – | 22.4 | 10.2 | – | –
8 | Cl.Nc1nc(-c2ccc(I)cc2)nc2ccccc12 | 0.02 | 12.3 | 2030 | 617.5 | 94.5 | 96.7 | 101000 | logP [9]: 2.71; Activity (A549 [10]): 18.53%
9 | Nc1nc(-c2ccc(I)cc2)nc2ccccc12 | – | – | – | – | – | – | – | inhibition (A549 [11]): Active
10 | CCNc1nc(-c2ccc(I)cc2)nc2ccccc12 | 0.000205 | 1.63 | 968 | 7.95 10^5No_unit | – | – | 4.72e+06 | logD [3]: 3.54; Drug uptake [4]: Active; Drug uptake [5]: Active; Drug uptake [6]: Active
